“And” between values parts separate entries of the source, which are not always exact repeats. Identical values can stand only once. Like-named read-outs stand apart in the source and are kept apart here. Non-standard residues stand in square brackets, D forms with d. Residues, ends and D or L forms follow the SMILES beside them. Tyr(3-I) = N[C@@H](Cc1ccc(O)c(I)c1)C(=O)O; pGlu = O=C1CC[C@@H](C(=O)O)N1; Nle = CCCC[C@H](N)C(=O)O

The target in assay [1] is T1, NTR1 (Homo sapiens, UniProt P30989). Nature of the assay: ^125I-NT binding to PC3 cells. The settings on record: for maximal increase in NT binding to PC3 cells: as much as / up to, dose-response.
Assay [2] has as its target T1, NTR1. Nature of the assay: NT-induced IP formation in PC3 cells. The format is cell-based. Details: Ab-NTR1 detected two major bands in extracts of PC3 cells, the parent protein of 50 kDa; endogenous in cells; host or cells: PC3 cells (ATCC).
In assay [3] the target is T1, NTR1. Nature of the assay: ^125I-NT binding to isolated PC3 cell membranes. Set-up: Ab-NTR1 detected two major bands in extracts of PC3 cells, the parent protein of 50 kDa; endogenous in cells; host or cells: PC3 cells (ATCC).
Another assay addresses T2, bombesin receptor (Homo sapiens, UniProt P30550).
T2 construct: endogenous in cells; host or cells: PC3 cells (ATCC)
Nature of the assay: ^125I-[Nle^14]-bombesin binding to PC3 cells. The settings on record: for Specific Binding (% control) of ^125I-[Nle14]-bombesin: 37° C.

Setting [4] is: general reducing agents and antioxidants.
Where [5] appears, read: read-out: NT Binding EC50, [agent] giving 75% increase in NT binding.
Setting [6] is: 6 μM enzyme inhibitor, PC3 cells.
[7] abbreviates: 20 μM enzyme inhibitor, PC3 cells.
The mark [8] stands for this setting: 60 μM enzyme inhibitor, PC3 cells.
The mark [9] stands for this setting: vitamin-like antioxidants at 20-180 μM, n=3.

T1 sequence (P30989 whole entry): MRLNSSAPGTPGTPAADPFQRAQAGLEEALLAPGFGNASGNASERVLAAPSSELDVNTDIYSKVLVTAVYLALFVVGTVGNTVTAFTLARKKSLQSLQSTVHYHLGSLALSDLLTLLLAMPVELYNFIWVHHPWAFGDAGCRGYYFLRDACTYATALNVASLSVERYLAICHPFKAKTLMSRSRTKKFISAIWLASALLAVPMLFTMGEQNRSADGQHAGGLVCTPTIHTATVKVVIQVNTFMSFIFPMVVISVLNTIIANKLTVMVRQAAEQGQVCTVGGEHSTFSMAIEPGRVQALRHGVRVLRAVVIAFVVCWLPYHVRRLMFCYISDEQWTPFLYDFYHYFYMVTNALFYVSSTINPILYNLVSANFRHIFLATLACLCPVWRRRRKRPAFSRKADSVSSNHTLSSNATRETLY
T2 sequence (P30550 whole entry): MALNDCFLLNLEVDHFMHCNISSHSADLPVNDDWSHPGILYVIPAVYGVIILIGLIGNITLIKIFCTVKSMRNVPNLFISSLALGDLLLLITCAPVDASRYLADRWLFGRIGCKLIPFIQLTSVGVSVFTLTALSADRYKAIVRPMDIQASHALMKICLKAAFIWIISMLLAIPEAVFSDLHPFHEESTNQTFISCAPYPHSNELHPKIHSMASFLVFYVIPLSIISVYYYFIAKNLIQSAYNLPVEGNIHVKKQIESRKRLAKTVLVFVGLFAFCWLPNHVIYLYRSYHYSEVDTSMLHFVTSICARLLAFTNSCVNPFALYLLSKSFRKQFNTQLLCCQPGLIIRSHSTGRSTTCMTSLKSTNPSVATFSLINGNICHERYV

For the molecule `O[C@H](CS)[C@H](O)CS` (racemic) [DTT, dithiothreitol], the “effect on NT binding” value at NTR1 [1] (setting [4]) is listed as “not much affected”.
`Oc1cc(O)c2c(c1)O[C@H](c1ccc(O)c(O)c1)[C@@H](O)C2` [(+)-catechin]: the “effect on NT binding” value at NTR1 [1] (used at 10-100 μM, n=3) was “without effect”.
On to `CC(=O)OCOC(=O)CN(CC(=O)OCOC(C)=O)c1ccccc1OCCOc1ccccc1N(CC(=O)OCOC(C)=O)CC(=O)OCOC(C)=O` [BAPTA-AM, 1,2-bis(o-aminophenoxy)ethane-N,N,N′,N′-tetraacetic acid tetra(acetoxymethyl) ester], for which the “effect on NT binding” value on NTR1 [1] (chelation of intracellular Ca^2+, 50 μM BAPTA-AM) was “nor was NT binding altered”.
As for `COc1ccc(O)c(C(C)(C)C)c1` [BHA, butylated hydroxy anisole], on NTR1 [1] (setting [5]), the EC50 came to 110 µM.
`COC(=O)C1=C(C)NC(C)=C([N+](=O)[O-])C1c1ccccc1C(F)(F)F` (stereo not drawn) [BayK-8644]: the EC50 at NTR1 [1] (setting [5]) amounted to 16 µM.
For `O=C(/C=C/c1ccc(O)c(O)c1)OCCc1ccccc1` [CAPE, caffeic acid phenethyl ester], at NTR1 [1], the response was half-maximal at 34 µM (EC50) and the “maximal increase in NT binding to PC3 cells” value (“maximal increase in NT binding” below) is given as not above 2.8 fold. Moreover, the IC50 on NTR1 [2] is 18 µM.
The molecule `N#CC(C#N)=NNc1cccc(Cl)c1` [CCCP, Carbonyl cyanide 3-chlorophenylhydrozone] yielded an EC50 on NTR1 [1] of 23 µM.
Consider `COc1ccc([C@@H]2Sc3ccccc3N(CCN(C)C)C(=O)[C@@H]2OC(C)=O)cc1` [Diltiazem, diltiazem], for which the “maximal increase in NT binding” value on NTR1 [1] is not above 1.4 fold.
On NTR1 [1], `c1ccc2c(c1)[I+]c1ccccc1-2` [Diphenylene iodonium] registered an EC50 of 61 µM. The IC50 at NTR1 [2] ([agent] giving 50% decrease in IP formation, read-out: IP Formation IC50) was 35 µM.
As for `O=C(O)CN(CCOCCOCCN(CC(=O)O)CC(=O)O)CC(=O)O` [EGTA, ethylene glycol tetra-acetic acid], the “increase in NT binding” value on NTR1 [1] stood at 38±6 % increase. Further, at NTR1 [2] (Ca^2+-chelator added), the “effect on NT-induced IP formation” value is given as “inhibited”.
Turning to `COC(=O)c1c(C)[nH]c(C)c1C(=O)c1ccccc1Cc1ccccc1` [FPL-64176], on NTR1 [1] (setting [5]), the EC50 came to 29 µM.
In the case of `Cc1cc2c(C(C)C)c(O)c(O)c(C=O)c2c(O)c1-c1c(C)cc2c(C(C)C)c(O)c(O)c(C=O)c2c1O` [Gossypol, gossypol], at NTR1 [1] (LOX blockers), the “NT Binding Efficacy % increase” value was found to be 170 % increase. Moreover, on NTR1 [2] ([agent] that decreased IP formation by 40%, read-out: IP Formation IC50), the IC50 turned out to be 20 µM.
In the case of `CCCc1c(OCCCCc2nnn[nH]2)ccc(C(C)=O)c1O` [LY171883], at NTR1 [1] (LOX blockers), the “NT Binding Efficacy % increase” value was 157 % increase. Also, the EC50 on NTR1 [1] (read-out: NT Binding EC50, [agent] giving 100% increase in NT binding) turned out to be 34 µM.
Take `CC(=O)N[C@@H](CS)C(=O)O` [N-acetyl cysteine]: at NTR1 [1] (used at 1-3 mM, n=3), the “effect on NT binding” value is “without effect”.
With `CC(Cc1ccc(O)c(O)c1)C(C)Cc1ccc(O)c(O)c1` (stereo not drawn) [NDGA, Nordihydroguaiaretic acid], the “Specific NT-Binding (% control)” value at NTR1 [3] (10 μM LOX pathway blocker) is given as 110 ± 5 % control; on NTR1 [3] (25 μM LOX pathway blocker), 121 ± 8 % control; at NTR1 [3] (75 μM LOX pathway blocker), 132 ± 10 % control. Besides, the entries for the “Specific Binding (% control) of ^125I-[Nle14]-bombesin” value at bombesin receptor (12 μM LOX blocker) and at bombesin receptor (60 μM LOX blocker) were 110 ± 3 % control and 127 ± 4 % control, respectively.
On to `CC1=C(/C=C/C(C)=C/C=C/C(C)=C/C(=O)O)C(C)(C)CCC1` [Retinoic Acid, retinoic acid], for which the figures for the “Specific NT-Binding (% control)” value at NTR1 [3] (10 μM LOX pathway blocker), on NTR1 [3] (25 μM LOX pathway blocker) and on NTR1 [3] (75 μM LOX pathway blocker) were 102 ± 3 % control, 115 ± 4 % control and 142 ± 8 % control, respectively.
In the case of `CCCCCC(O)c1cccc(OCc2ccc3ccccc3n2)c1` (stereo not drawn) [Rev5901], at NTR1 [1] (LOX blockers), the “NT Binding Efficacy % increase” value is given as 160 % increase. Moreover, the “maximal increase in NT binding” value on NTR1 [1] is not above 2.4 fold. Also, the “Specific NT-Binding (% control)” value amounted to 101 ± 4 % control on NTR1 [3] (10 μM LOX pathway blocker), 113 ± 5 % control on NTR1 [3] (25 μM LOX pathway blocker) and 110 ± 5 % control at NTR1 [3] (75 μM LOX pathway blocker). Besides, the “Specific Binding (% control) of ^125I-[Nle14]-bombesin” value at bombesin receptor (12 μM LOX blocker) turned out to be 107 ± 3 % control; on bombesin receptor (60 μM LOX blocker), 119 ± 3 % control.
`C[S+]([O-])c1ccc(-c2nc(-c3ccncc3)c(-c3ccc(F)cc3)[nH]2)cc1` (stereo not drawn) [SB203580]: the entries for the “Specific NT-Binding (% control)” value on NTR1 [1] (setting [6]), on NTR1 [1] (setting [7]) and on NTR1 [1] (setting [8]) were 108 ± 8 % control, 116 ± 7 % control and 125 ± 9 % control, respectively.
On to `COc1ccc(CCCOC(Cn2ccnc2)c2ccc(OC)cc2)cc1` (stereo not drawn) [SKF-96365], for which the “Specific Binding (% control) of ^125I-[Nle^14]-bombesin” value came out at 99 ± 2 % control at bombesin receptor (12 μM agent) and 106 ± 4 % control at bombesin receptor (60 μM agent).
As to `N#CC(=C(/N)Sc1ccccc1N)/C(C#N)=C(\N)Sc1ccccc1N` [U0126], at NTR1 [1], the “Specific NT-Binding (% control)” value is 118 ± 6 % control and 108 ± 6 % control and 120 ± 9 % control.
In the case of `COc1ccc(CCN(C)CCCC(C#N)(c2ccc(OC)c(OC)c2)C(C)C)cc1OC` (stereo not drawn) [Verapamil, verapamil], the “Specific Binding (% control) of ^125I-[Nle^14]-bombesin” value at bombesin receptor (12 μM agent) and on bombesin receptor (60 μM agent) was 104 ± 4 % control each time.
`CCCC[C@H](NC(=O)[C@H](CC(C)C)NC(=O)[C@H](Cc1c[nH]cn1)NC(=O)CNC(=O)[C@@H](NC(=O)[C@H](C)NC(=O)[C@H](Cc1c[nH]c2ccccc12)NC(=O)[C@H](CCC(N)=O)NC(=O)[C@H](CC(N)=O)NC(=O)CNC(=O)[C@H](Cc1ccc(O)c(I)c1)NC(=O)[C@H](CCCNC(=N)N)NC(=O)[C@H](CCC(N)=O)NC(=O)[C@@H]1CCC(=O)N1)C(C)C)C(N)=O` [^125I-[Nle^14]-bombesin] ([pGlu]QR[Tyr(3-I)]GNQWAVGHL[Nle]-NH2; C-terminus assumed): the “Specific Binding (% of total)” value at bombesin receptor (10^5 cpm ^125I-ligand) is given as 95 % of total. The Bmax on bombesin receptor (Scatchard analysis) is 1016 ± 64 fmol/mg.
For the molecule `O=C1O[C@H]([C@@H](O)CO)C(O)=C1O` [ascorbic acid], the “effect on NT binding” value at NTR1 [1] (setting [4]) is “not much affected”; at NTR1 [1] (setting [9]), “ineffective”.
Take `O=c1oc2c(O)c(O)cc3c(=O)oc4c(O)c(O)cc1c4c23` [ellagic acid]: the “effect on NT binding” value on NTR1 [1] (used at 10-100 μM, n=3) is “without effect”.
Take `Fc1ccc(C(c2ccc(F)cc2)N2CCN(C/C=C/c3ccccc3)CC2)cc1` [flunarizine]: the “effect on NT binding” value at NTR1 [1] (less specific CCBs) is on record as “only modest effects”.
In the case of `N[C@@H](CCC(=O)N[C@@H](CS)C(=O)NCC(=O)O)C(=O)O` [glutathione], on NTR1 [1] (used at 1-3 mM, n=3), the “effect on NT binding” value is “without effect”.
For `COc1ccc2c(c1)c(CC(=O)O)c(C)n2C(=O)c1ccc(Cl)cc1` [indomethacin], the “Specific NT-Binding (% control)” value on NTR1 [1] (setting [6]) came to 109 ± 4 % control; at NTR1 [1] (setting [7]), 95 ± 6 % control; on NTR1 [1] (setting [8]), 113 ± 7 % control.
Take `Clc1ccc(COC(Cn2ccnc2)c2ccc(Cl)cc2Cl)c(Cl)c1` (stereo not drawn) [miconazole]: the “NT Binding Efficacy % increase” value on NTR1 [1] (maximal % increase in NT binding observed for each agent) was 75 % increase. Besides, the “IP Formation Efficacy (% decrease)” value at NTR1 [2] (maximal % decrease in NT-induced IP formation) is on record as 54 % decrease.
On to `Cc1ncc(CO)c(CO)c1O` [pyridoxine], for which the “effect on NT binding” value was “not much affected” on NTR1 [1] (setting [4]) and “ineffective” on NTR1 [1] (setting [9]).
On to `O=c1c(O)c(-c2ccc(O)c(O)c2)oc2cc(O)cc(O)c12` [quercetin], for which the “effect on NT binding (figure legend)” value at NTR1 [1] (FIG. 21A) is “enhanced NT-binding to NTR”. Besides, on NTR1 [2] (FIG. 21B), the “effect on NT-induced IP formation (figure legend)” value is “inhibited NT-induced IP formation”.
As for `Cc1cc2nc3c(=O)[nH]c(=O)nc-3n(C[C@H](O)[C@H](O)[C@H](O)CO)c2cc1C` [riboflavin], the “effect on NT binding” value is recorded as “not much affected” on NTR1 [1] (setting [4]) and “ineffective” at NTR1 [1] (setting [9]).
Molecule `C=C(C)[C@H]1Cc2c(ccc3c2O[C@@H]2COc4cc(OC)c(OC)cc4[C@@H]2C3=O)O1` [rotenone] registered an EC50 on NTR1 [1] of 38 µM.
Regarding `[BH4-].[Na+]` [sodium borohydride], the “effect on NT binding” value on NTR1 [1] (setting [4]) is reported as “not much affected”; on NTR1 [1] (used at 1-3 mM, n=3), “without effect”.
With `Cc1ncc(C[n+]2csc(CCO)c2C)c(N)n1` [thiamine], the “effect on NT binding” value at NTR1 [1] (setting [4]) was “not much affected”; on NTR1 [1] (setting [9]), “ineffective”.
Take `CN1CCN(CCCN2c3ccccc3Sc3ccc(C(F)(F)F)cc32)CC1` [trifluoperazine]: the “effect on NT binding” value at NTR1 [1] (less specific CCBs) is “only modest effects”.
For `Cc1c(C)c2c(c(C)c1O)CCC(C)(C(=O)O)O2` (stereo not drawn) [trolox], the “effect on NT binding” value at NTR1 [1] (setting [4]) is recorded as “not much affected”; at NTR1 [1] (used at 10-100 μM, n=3) it was “without effect”.
As for `Cc1c(C)c2c(c(C)c1O)CC[C@@](C)(CCC[C@H](C)CCC[C@H](C)CCCC(C)C)O2` [α-tocoferol], the “effect on NT binding” value at NTR1 [1] (setting [9]) is reported as “ineffective”.
Still for that read-out and setting: the entry for `CC1=C(/C=C/C(C)=C/C=C/C(C)=C/C=C/C=C(C)/C=C/C=C(C)/C=C/C2=C(C)CCCC2(C)C)C(C)(C)CCC1` [β-carotene] is “ineffective”.
On to (−)-epigallocatechin gallate, for which the “effect on NT binding” value on NTR1 [1] (used at 10-100 μM, n=3) is “without effect”.
